Source: publication PMC5471521, “Novel selective β1-adrenoceptor antagonists for concomitant cardiovascular and respiratory disease” (The FASEB Journal, 2017)

What was measured:
human β1-AR [1] = target: T1, human β1-AR (Homo sapiens, UniProt P08588); experiment: Duration of ligand binding (washout, 3H-CGP12177 whole-cell binding in CHO-β1 cells); conditions: greater shift = shorter duration of binding; mean ± SEM
T1 construct: expressed in transfected cells
Description: A method that involved ligand washout was used as described ([44]). Cells were incubated with either competing ligand and ^3H-CGP12177 for 2 h (control plate), or competing ligand alone for 2 h (duration plate). After 2 h, the control plate was processed while the duration plate was washed, and ^3H-CGP12177 alone was added to wells and incubated for a second 2 h before processing. […] Relative measures of ligand duration of binding are indicated by the degree of rightward shift of displacement curves ([44]).

human β1-AR [2] = target: T1, human β1-AR; experiment: 3H-cAMP accumulation agonist response in CHO-β1 cells; assay type: cell-based; conditions: agonist mode
Description: Confluent cells were examined (24-well plates, 5 h incubation at 37°C) as described in Baker ([45]). Antagonist Kd values were calculated from a rightward shift of the agonist concentration response curve by using the Gaddum equation as previously described ([46]).

human β1-AR [3] = target: T1, human β1-AR; experiment: Direct measurement of ERK1/2 MAPK phosphorylation in CHO-β1 cells; assay type: cell-based; conditions: 3 and 10 μM, 5- and 10-min incubations
Description: MAPK stimulation was examined by using the AlphaScreen Surefire ERK1/2 T202/Y204 assay kit from TGR Biosciences (PerkinElmer, Waltham, MA, USA), which gives a direct quantitative readout of ERK1/2 (p42/44) MAPK phosphorylation. Confluent cells (half-well 96-well plates) were serum starved for 24 h, then the assay was performed per manufacturer instructions (5- and 10-min incubations at 37°C: ligand concentrations of 3 and 10 μM). Phorbol 12,13-dibutyrate (1 μM) was used as a positive control.

[4] = Bidirectional CaCo-2 permeability; assay type: in vitro ADME; conditions: human, hydrochloride salts used; for efflux ratio at 90 min, 20 µM: Caco-2, pH 7.4, read-out: Efflux ratio Papp, B-A/Papp, A-B; for Papp A→B at 90 min, 20 µM: Caco-2, pH 7.4, 90 min, mean ± SD
Description: (§1) CaCo-2 cells were grown in Transwell permeable supports, and confluency was assessed by transepithelial electrical resistance measurements (>270 Ω/cm^2) and by unidirectional permeability (apical-basolateral) of the low- and high-permeability reference compounds, ^14C-mannitol and ^3H-propranolol. NDD-713.HCl and -825.HCl (20 µM in HBSS that contained 20 mM HEPES, pH 7.4) were transferred to the donor compartment of Transwell plates and the acceptor compartments were filled with blank HBSS. Permeability was determined over 90 min by sampling both compartments. Quantitation of compound concentrations in donor and acceptor samples was by liquid chromatography–mass spectrometry (LC-MS; lower limit of quantification, 0.5–1.5 ng/ml), and for ^14C-mannitol and ^3H-propranolol, by liquid scintillation counting. Apparent permeability coefficients (Papp) were calculated as follows: Papp (cm/s) = dQ/dT × 1/(C0 × A), where dQ/dt = apparent steady-state transport rate (μmol/s); C0 = initial concentration in the chamber (μmol/cm^3); and A = surface area of CaCo-2 monolayer (0.3cm^2). Efflux ratios were calculated as the ratio of mean Papp values in B→A and A→B directions. Studies were carried out by CDCO.

CaCo-2 cells = experiment: Bidirectional CaCo-2 permeability; assay type: in vitro ADME; conditions: for Apical-to-basolateral membrane permeability (class in words): bidirectional CaCo-2 assay; for Mass balance A-B: hydrochloride salts used
Description: as §1

[5] = Protein binding by ultracentrifugation, human plasma; assay type: in vitro ADME; conditions: read-out: fu human plasma
Description: (§2) Protein binding of 1 µM NDD-713.HCl and -825.HCl in human and rat plasma, as well as human liver microsomes, was assessed by using the ultracentrifugation technique. Frozen human plasma (Australian Red Cross Blood Service, Melbourne, VIC, Australia) and rat plasma (male Sprague-Dawley rats; Charles River, Margate, Kent, United Kingdom) were thawed at 37°C. Human liver microsomes (XenoTech) were suspended in 0.1 M phosphate buffer (pH 7.4) at protein concentrations of 0.4 mg/ml. Samples were collected immediately as stability reference controls. Spiked plasma samples (but not microsome samples) were incubated at 37°C for 1 h. […] NDD-713.HCl and -825.HCl concentrations of noncentrifuged matrix and protein-free supernatant were determined by UPLC-MS relative to calibration standards prepared in the respective matrices. Total concentration (Ctotal) was the average measured concentration in […] samples maintained at 37°C, and unbound concentration (Cunbound) was the average measured concentration in protein-free supernatants from centrifuged samples (n = 3). The compound unbound fraction (fu) was calculated: fu = Cunbound/Ctotal. Compound degradation was assessed by comparing concentrations in noncentrifuged plasma samples that were incubated at 37°C with concentrations measured in the t = 0 noncentrifuged samples. […]

[6] = Protein binding by ultracentrifugation, rat plasma; assay type: in vitro ADME; conditions: male, Sprague-Dawley, read-out: fu rat plasma
Description: as §2

[7] = Metabolic stability, rat liver microsomes; assay type: in vitro ADME; conditions: in the presence of NAD+, NADPH, or in the absence of cofactors
Description: NDD-713.HCl and -825.HCl were incubated (0.02, 0.1, or 0.5 μM at 37°C, 120 min) with human (XenoTech, Kansas City, KS, USA) or rat liver microsomes (BD Biosciences, Brea, CA, USA) at 0.4 mg/ml protein concentration. Metabolic reaction was initiated by addition of NADPH-regenerating system or NADPH-regenerating system with uridine diphosphate glucuronic acid. Samples were quenched at time points by acetonitrile addition. Control samples, which contained neither NADPH, nor uridine diphosphate glucuronic acid, were monitored for degradation. Compound concentrations were determined by ultraperformance LC-MS (UPLC-MS) relative to calibration standards that were prepared in quenched liver microsomes and fitted to exponential decay functions to determine first-order rate constants (k) for substrate depletion. These were used to calculate in vitro intrinsic clearance (CLint) values: CLint = k/microsomal protein content (0.4 mg protein/ml). Metabolic stability assays that used rat liver cytosol (BD Biosciences), human cryopreserved hepatocytes, or rat hepatocytes were carried out similarly. Average viable cell concentrations were determined by Trypan Blue exclusion methods (in the absence of test compounds). Studies were carried out by CDCO.

β1-AR vs. β2-AR = experiment: Calculation of selectivity indices (receptor occupancy, PK-pharmacodynamic ternary complex model); conditions: human, exercise HR vs FEV1, ternary complex model
[8] = test system: panel of 80 receptors and ion channels; experiment: Cerep in vitro receptor selectivity profiling; assay type: binding; conditions: CGP20712A and LK204-545 at 10 μM, NDD-713 at 4.8 μM, NDD-825 at 2.4 μM
Description: Ki (inhibition constant) was calculated by using the Cheng-Prusoff equation from the mean of duplicate determinations in cell-based receptor radioligand-binding assays. Cerep in vitro pharmacology profiling service was used (see the Supplemental Data for a list of the assays used).

T1 sequence (P08588 whole entry): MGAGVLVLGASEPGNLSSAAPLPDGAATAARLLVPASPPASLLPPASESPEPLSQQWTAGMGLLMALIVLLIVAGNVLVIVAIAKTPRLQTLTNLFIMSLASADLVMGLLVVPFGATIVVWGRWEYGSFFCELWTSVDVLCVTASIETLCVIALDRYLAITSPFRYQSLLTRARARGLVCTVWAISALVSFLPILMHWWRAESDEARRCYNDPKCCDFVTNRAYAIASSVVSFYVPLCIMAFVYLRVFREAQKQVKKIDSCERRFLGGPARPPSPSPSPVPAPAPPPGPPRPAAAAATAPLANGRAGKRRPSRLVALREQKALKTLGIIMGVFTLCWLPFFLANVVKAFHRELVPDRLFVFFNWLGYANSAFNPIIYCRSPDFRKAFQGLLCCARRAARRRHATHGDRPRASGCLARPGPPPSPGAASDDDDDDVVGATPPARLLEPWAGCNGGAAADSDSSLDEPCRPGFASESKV

## NC(=O)c1ccc(OCCNC[C@H](O)COc2ccc3c(c2)OC[C@@H](COCC2CC2)O3)cc1 [NDD-713]
Human β1-AR [1]
  Log shift (rightward shift of washout curve vs control): 1.75 ± 0.08
Human β1-AR [2]
  Maximum 3H-cAMP response relative to isoprenaline: No ^3H-cAMP responses were observed
Human β1-AR [3]
  Agonist response by directly measuring ERK1/2 MAPK: did not stimulate any agonist response
[4]
  efflux ratio at 90 min, 20 µM: < 3
  Papp A→B at 90 min, 20 µM: 25 ± 4 ×10⁻⁶ cm/s
CaCo-2 cells
  Apical-to-basolateral membrane permeability (class in words): high
  Mass balance A-B: 76 ± 10%
[5]
  fraction unbound at 1 h, 1 µM: 0.15
[6]
  fraction unbound at 1 h, 1 µM: 0.16
[7]
  microsomal CLint: < 0.1 µL/min/mg
β1-AR vs. β2-AR
  SI3 (in vivo pharmacologic response) = Eβ1/Eβ2: 67
[8]
  Off-target binding in receptor and ion channel panel: poor affinity for most other GPCRs and ion channels

## O=C1NCc2cc(OCCNC[C@H](O)COc3ccc4c(c3)OC[C@@H](COCC3CC3)O4)ccc21 [NDD-825]
Human β1-AR [1]
  Log shift (rightward shift of washout curve vs control): 1.62 ± 0.11
Human β1-AR [2]
  Maximum 3H-cAMP response relative to isoprenaline: No ^3H-cAMP responses were observed
Human β1-AR [3]
  Agonist response by directly measuring ERK1/2 MAPK: did not stimulate any agonist response
[4]
  efflux ratio at 90 min, 20 µM: < 3
  Papp A→B at 90 min, 20 µM: 6.5 ± 0.5 ×10⁻⁶ cm/s
CaCo-2 cells
  Apical-to-basolateral membrane permeability (class in words): intermediate
  Mass balance A-B: 79 ± 11%
[5]
  fraction unbound at 1 h, 1 µM: 0.01
[6]
  fraction unbound at 1 h, 1 µM: 0.11
[7]
  microsomal CLint: 0.18 ± 0.2 µL/min/mg
β1-AR vs. β2-AR
  SI3 (in vivo pharmacologic response) = Eβ1/Eβ2: 81
[8]
  Off-target binding in receptor and ion channel panel: poor affinity for most other GPCRs and ion channels
